Experimental data from US20160346225A1, “METHOD OF PREPARING INGESTIBLE MULTI-SHEET UNIT HAVING PREDETERMINED FUNCTIONS AND COMBINATIONS” (Purdue Research Foundation, priority 2011, published 2016).

Experiments:
[1] = dissolution of griseofulvin from particle-containing polymer films; format: physicochemical; details: for dissolution profile as a function of film thickness: FIG. 5D
Excerpt: A 10 micron film can be configured with the film is a single layer of particles that are held together by the polymer sheet, where the particles may or may not be larger in diameter than the film thickness. In one example, a films can be on the order of 100 microns. However, the film can be as thin as roughly the size of the largest particles.

[2] = in the dissolution medium; cited from earlier work

With COC1=CC(=O)C[C@@H](C)[C@]12Oc1c(Cl)c(OC)cc(OC)c1C2=O [griseofulvin] the “dissolution of drug from immobilized particles at high drug load” value ([1]; about 72% (w/w) drug load in the film, FIG. 7) was “enhanced dissolution of drug from the immobilized particles is still observed”, the “drug release rate from film matrix” value ([1]; film matrix (HPMC or alginate) vs same type of particles (API) free from polymer, same area of exposure, FIG. 6) was “accelerated drug release” and the “dissolution profile as a function of film thickness” value ([1]; film thickness increased from 10 microns to 20 microns) was “initially increase the dissolution profile”. The “dissolution profile as a function of film thickness” value ([1]; film thickness increased up to 70 microns) was “significantly decreases the dissolution profile”, the “drug release rate as a function of drug load in the film” value ([1]; range of drug loading percentages, FIG. 7) was “increases with drug load” and the solubility [2] was “poorly-soluble”.
